Results reported in PubChem BioAssay AID449764 (Southern Research Specialized Biocontainment Screening …, 2010).
Where a SMILES comes first, the peptide text is derived from it. [ ]: non-standard residue; d: D form. The star is where a group is joined. ξ: configuration not given here. ξF = NC(Cc1ccccc1)C(=O)O; Cbz = O=C(OCc1ccccc1)*

Tested on: Mycobacterium tuberculosis H37Rv growth inhibition, no glycerol
Experiment: Mycobacterium tuberculosis H37Rv growth inhibition, no glycerol, confirmatory dose response (AID 449764);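 note: growth read after 7 days of incubation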
Conditions: for IC90: measured here: IC90 growth inhibition

| Structure (SMILES) | IC50 [µM] | IC90 [µM] |
| --- | --- | --- |
| Cc1ccc(C2CC(c3cccs3)=NN2C(=O)CCl)cc1 (centres undefined) | 1.42 | 1.77 |
| CC1(c2ccc(OC(F)F)cc2)NC(=O)N(CC(=O)c2ccc3c(c2)OCO3)C1=O (centres undefined) | 37.2 | 70.8 |
| O=C(Nc1cccc(-c2csc(Nc3ccc(Cl)cc3)n2)c1)c1cccc(C(F)(F)F)c1 | 43.8 | > 100 |
| Cc1ccc(C)c(S(=O)(=O)N2CCC(c3nc4c(nnn4Cc4ccc5c(c4)OCCO5)c(=O)[nH]3)CC2)c1 | 24.2 | > 100 |
| CC(C)OC(=O)CSc1nc2ccccc2s1 | 22.1 | 36.7 |
| COc1ccc(-n2cc(CNCCc3cscn3)c(-c3ccccc3Cl)n2)cc1 | 27.8 | 35.9 |
| Oc1ccc(/C=N/NC(=S)N2CCOCC2)cc1 | 6.06 | 6.83 |
| CCCOc1ccc(N2CC(C(=O)Nc3ccccn3)CC2=O)cc1 (centres undefined) | 36.4 | > 100 |
| COc1cccc2sc(Nc3nnc(-c4cccs4)o3)nc12 | 33.9 | 42.7 |
| Cc1ccc(/C=C/S(=O)(=O)NCC(=O)OCC(=O)Nc2c(F)cccc2F)cc1 | 22.9 | 41.3 |
| CN(CC(=O)Nc1ccc(F)c(F)c1F)c1cnccn1 | 9.88 | 13.4 |
| Cc1ccc(-c2csc3ncnc(Nc4ccc(N5CCOCC5)cc4)c23)cc1 | 23.9 | 26.2 |
| Cc1cc(C)c2nc(-c3ccncc3)cc(C(=O)N3CCN(Cc4ccccc4Cl)CC3)c2c1 | 31.3 | 43.7 |
| c1ccc(-c2nccc(-c3ccc(-n4cnc5ccccc54)cc3)n2)nc1 | 19 | 23.7 |
| CN(C)c1ccc(/C=C2\N=C(C(C)(C)C)OC2=O)cc1 | 86 | > 100 |
| Clc1ccc(SCc2cc(N3CCOCC3)nc(-c3ccccn3)n2)cc1 | 6.68 | 11.6 |
| CCOC(=O)c1c(C)[nH]c(N=Nc2ccc(OC)cc2)c1C | 11.3 | > 25 |
| Cc1ccc(C2=NCCn3c2c2ccccc2[n+]3[O-])cc1 | 24.5 | 31.7 |
| O=C1C2(Cl)C3(Cl)C4(Cl)C(Cl)(Cl)C5(Cl)C3(Cl)C1(Cl)C5(Cl)C24Cl (centres undefined) | 44.4 | 65.2 |
| C/C(=N/Nc1ccnc2cc(Cl)ccc12)c1ccc(O)cc1 | 30.1 | 36.2 |
| S=C1SCN(Cc2ccco2)CN1Cc1ccco1 | 43.1 | 54.2 |
| C=CCOC(=O)COc1ccc2c(C)c(CC)c(=O)oc2c1 | 1.49 | 1.68 |

| Structure (SMILES) | IC50 [µM] | IC90 [µM] |
| --- | --- | --- |
| CC(C)(C)NC(=O)COC(=O)c1cc(Br)ccc1Cl | 24.3 | 45.4 |
| CC1(C)Cc2c(cnn2-c2ccccc2)-c2c1c1ccccc1n2CC(O)CCl (centres undefined) | 95.4 | > 100 |
| Cc1ccc(C(C)C)c(OCC(=O)OCc2c(C)noc2C)c1 | 4.65 | 6.88 |
| CCOC(=O)c1c(C)n(-c2ccc(C)cc2)c2ccc(OCC(O)CNCC3CCCO3)cc12 (centres undefined) | 22.8 | 25.7 |
| O=C(CSc1nnc(-c2cccs2)o1)NCC1CN(Cc2ccccc2)CCO1 (centres undefined) | 20.7 | 25.5 |
| O=[N+]([O-])c1cc(C=Nc2ccc3ccccc3c2)ccc1Br | 34.5 | 44.5 |
| N#Cc1cccc(NC(=O)N2CCC(c3nc4c(nnn4Cc4cccc(Cl)c4)c(=O)[nH]3)CC2)c1 | 21.2 | 23.3 |
| COc1ccc(/C=N/Nc2cc(N3CCCC3)nc(N3CCCC3)n2)cc1 | 18.6 | 24 |
| Cc1ccc(NC(=O)c2cnc(SCC(=O)NCC3CCCO3)n(C)c2=O)cc1C (centres undefined) | 32 | > 100 |
| CC(/C=C/c1ccccc1)=N\NC(N)=S | 4.99 | 12.3 |
| CN(C)CCCN(C(=O)c1cc(-c2cccs2)nc2ccccc12)c1nc2ccc(F)cc2s1 | 34.9 | 54.3 |
| CCN(CC)CCCNc1nc2cc(OC)c(OC)cc2c2nc(-c3ccccc3)nn12 | 11.1 | 12.8 |
| CCOc1ccc(C2c3[nH]c4ccccc4c3C[C@H]3C(=O)N(C4CCN(Cc5ccccc5)CC4)CC(=O)N23)cc1OC (some centres undefined) | 23.7 | > 100 |
| CN(C)c1ccc(O)c2c1CC1CC3[C@@H](N(C)C)C(=O)C(C(N)=O)C(=O)[C@]3(O)C(=O)C1C2=O (some centres undefined) | 1.93 | 3.99 |
| Cc1ccn2c(NC3CCCCC3)c(-c3cccc(-c4cccc(Cl)c4)c3)nc2c1 | 26.4 | 36.3 |
| Cc1[nH]n(S(=O)(=O)Cc2ccccc2)c(=O)c1N=Nc1ccccc1Cl | 18.3 | 28.7 |
| c1ccc(-c2cn3c(n2)CCc2ccc4cccnc4c2-3)cc1 | 22.4 | 25.4 |
| O=C(N[C@H]1CCC(=O)N(CCSc2ccc(Br)cc2)CC1)OCc1ccccc1 | 32.9 | 46.6 |
| CCOC(=O)CSc1ncc(OC)c(Sc2ccc(OC)cc2)n1 | 18.1 | 54.3 |
| CCN1C(N(C)CCc2c[nH]c3ccccc23)=N[C@@H](c2cccc(C(F)(F)F)c2)C(C(=O)OC)=C1C | 22 | 25 |
| CCN(CC)c1ccc(/C=C2\SC(=O)N(C(C)C)C2=O)o1 | 2.87 | 4.69 |
| COc1ccc(C(=O)OCC(=O)c2ccc(Br)s2)c(OC)c1 | 73.6 | > 100 |

| Structure (SMILES) | IC50 [µM] | IC90 [µM] |
| --- | --- | --- |
| Cn1cc(C(=O)c2ccc(Cl)cc2)cc1-c1nc2ccccc2n1C | 35.9 | 49.5 |
| CCOC(=O)CCCc1ccc(/C(C)=N/NC(N)=S)cc1 | 8.39 | 25 |
| CC(C)c1ccc2c(c1)CCC1C(C)(CN)CCCC21C (centres undefined) | 17.7 | 26.7 |
| S=C(Nc1ccc(Nc2ccccc2)cc1)Nc1ccccn1 | 48.6 | > 50 |
| COC(=O)CCc1sc(Nc2ccc(Br)cc2)nc1-c1ccc(OC)cc1 | 40.9 | > 100 |
| COc1ccc(-c2ccc(C#N)c(SCC(=O)OCc3ccccc3)n2)cc1OC | 23.9 | 26.8 |
| Cn1cnc(Sc2ncnc3nc[nH]c23)c1[N+](=O)[O-] | 12.1 | 21.1 |
| O=C(OCC(=O)N1CCC(c2ccccc2)=N1)c1ccc(Cl)s1 | 97.6 | > 100 |
| Cc1nc2scc(-c3cccs3)c2c(=O)n1-n1cccc1 | 88.7 | > 100 |
| CC(=O)c1cccc(NC(=O)C2C3C=CC(C3=C(c3ccccc3)c3ccccc3)C2C(=O)O)c1 (centres undefined) |  | > 50 |
| CCOc1cc(C=O)cc(N=Nc2cccc([N+](=O)[O-])c2)c1O | 8.41 | 13.5 |
| COc1ccc(CCNc2nc(N3CCCCC3)nc(N3CCCCC3)n2)cc1OC | 18 | 23.3 |
| CCOC(=O)c1ccc(NC(=O)Cn2ncc(Cl)c(Cl)c2=O)cc1 | < 0.2 | 2.19 |
| CCCCn1c(SCc2ncc(-c3ccccc3)o2)nc2cc(S(N)(=O)=O)ccc21 | 5.25 | 8.34 |
| CN1C(=O)/C(=C/c2ccccc2Cl)Sc2ccc(C(=O)NCc3cccnc3)cc21 | 50.6 | 89.8 |
| CN1CCN(CC(=O)N2CCn3c4c(c5cc(C6CCCCC6)ccc53)CCCC42)CC1 (centres undefined) | 18 | 21.6 |
| CC(C)(C)c1ccc(C(=O)NNc2cc(N3CCCCC3)nc(N3CCCCC3)n2)cc1 | 62.7 | 74.4 |
| COc1nc(-c2ccccc2)cc(-c2ccc(OC)c(OC)c2)n1 | 86.4 | > 100 |
| S=c1nc2ccccc2c2nc(-c3ccccc3)[nH]n12 | 17.6 | 24.5 |
| O=C(CN1CCN(c2nc(-c3ccc(F)cc3)cs2)CC1)NCc1ccc2c(c1)OCO2 | 38.1 | 55.6 |
| COC(=O)c1ccc(NC(=O)CSc2nc3ccc(N4C(=O)C5C6C=CC(C6)C5C4=O)cc3s2)cc1 (centres undefined) | 4.89 | 6.03 |
| CCOC(=O)CCCNC(=O)COC(=O)c1cc(Br)c(Br)s1 | 18.5 | > 100 |

| Structure (SMILES) | IC50 [µM] | IC90 [µM] |
| --- | --- | --- |
| Cc1ccc2nc3c(cc(C(=O)NCc4ccco4)c(=N)n3Cc3ccco3)c(=O)n2c1 | 53.6 | > 100 |
| Cc1cc2c(N=O)c(NO)ccc2[nH]1 | 11.9 | 18.2 |
| O=C(OCc1ccccc1)/C(=C(\O)c1ccccc1Br)c1ccc(-c2ccccc2)cn1 | 35.4 | 49.3 |
| COc1ccc(C2c3[nH]c4ccccc4c3CCN2Cc2cccn2-c2ncccn2)cc1C (centres undefined) | 36.4 | 47 |
| O=C(NC1CCN(C(=O)N2c3ccccc3Sc3ccccc32)CC1)c1ccccc1F |  | > 100 |
| CCCn1c(=N)c(C(=O)NCc2ccc3c(c2)OCO3)cc2c(=O)n3cccc(C)c3nc21 | 20.6 | 29.1 |
| CC(C)CNC(=S)NC(=O)c1csc([N+](=O)[O-])c1 | 22.2 | 53.7 |
| COC(=O)CSc1[nH]c2ccc(Br)cc2c1[N+](=O)[O-] | 15.1 | 25 |
| NNC(=S)Nc1ccccc1Cl | 83.8 | 93 |
| O=C(c1cccc(-c2ccco2)c1)N1CCCC(N2CCN(c3ccc(F)cc3)CC2)C1 (centres undefined) | 74.1 | 95 |
| CCOC(=O)C(C)Oc1ccc(OCc2ccccc2)cc1 (centres undefined) | 9.95 | 14.6 |
| Cc1nnc(-c2ccccc2)c(=O)n1/N=C/c1c(O)ccc2ccccc12 | 22.1 | 24.7 |
| CC(C)(C)c1ccc(C(=O)CSc2n[nH]c(=O)[nH]c2=O)cc1 | 16.4 | 28.6 |
| CN(C)C1(CNC(=O)Nc2ccc(Cl)c(Cl)c2)CCCCC1 | 11.8 | 13.1 |
| CCc1cccc2c(C(=O)CCl)c[nH]c12 | 4.05 | 7.83 |
| COc1ccc(C(=O)/C=C/Sc2nc3ccccc3o2)cc1 | 90.8 | > 100 |
| CCOC(=O)CNC(=O)C(Cc1ccccc1)NC(=O)OCc1ccccc1 (centres undefined) (Cbz-[ξF]-Gly-OEt) | 3.04 | 3.46 |
| COc1ccc(-c2nnc(SCC(=O)N3CCc4ccccc4C3)o2)cc1 | 30.6 | 45.3 |
| COc1cc(NC(=O)c2cccs2)c(C(=O)OCC(=O)NCc2ccco2)cc1OC | 34.9 | > 100 |
| CCN(CC)S(=O)(=O)c1ccc2oc(SCC(=O)Nc3cc(C)on3)nc2c1 | 10.8 | 16.6 |
| C=CCOc1ccc2c(c1)C(=NO)c1cc(OCC=C)ccc1-2 | 28 | > 100 |
| CC(=O)c1ccc(NC(=O)c2cc(CC(C)C)on2)cc1 | 12 | 13.8 |
